Data reported in patent publication US20240218022A1, “ANTI-VISTA MACROCYCLIC PEPTIDES AND COMPOSITIONS” (BRISTOL-MYERS SQUIBB COMPANY, priority 2022, published 2024).
Like-named read-outs stand apart in the source and are kept apart here. Starred links: 1 amine or outer side, 2 acyl side, 3 side chain; linkers in the order of their positions; H or OH if unused. Positions of bridges follow the written chain, without caps; N, C: chain ends. Non-standard residues stand in square brackets, D forms with d. Residues, ends and D or L forms follow the SMILES beside them. X1 = C=CCOc1ccccc1C[C@H](N[*:1])C(=O)[*:2]; Phe(3-Br) = N[C@@H](Cc1cccc(Br)c1)C(=O)O; γGlu = O=C(O)[C@H](CCC(=O)[*:2])N[*:1]; 2Nal = N[C@@H](Cc1ccc2ccccc2c1)C(=O)O; Tic = O=C(O)[C@@H]1Cc2ccccc2CN1; Cit = NC(=O)NCCC[C@H](N)C(=O)O; Ahp(2) = CCCCC[C@H](N)C(=O)O; NMeNle = CCCC[C@H](NC)C(=O)O; Tle = CC(C)(C)[C@H](N)C(=O)O; NHexGly = CCCCCCNCC(=O)O; Nle = CCCC[C@H](N)C(=O)O; Orn = NCCC[C@H](N)C(=O)O; Aun = NCCCCCCCCCCC(=O)O; AEEA = NCCOCCOCC(=O)O

Biological target: T1, mouse VISTA (mVISTA) (Mus musculus, UniProt Q9D659)
T1 construct: expressed in transfected cells; host or cells: Human embryonic kidney 293T cells
T1 sequence (Q9D659 33-308): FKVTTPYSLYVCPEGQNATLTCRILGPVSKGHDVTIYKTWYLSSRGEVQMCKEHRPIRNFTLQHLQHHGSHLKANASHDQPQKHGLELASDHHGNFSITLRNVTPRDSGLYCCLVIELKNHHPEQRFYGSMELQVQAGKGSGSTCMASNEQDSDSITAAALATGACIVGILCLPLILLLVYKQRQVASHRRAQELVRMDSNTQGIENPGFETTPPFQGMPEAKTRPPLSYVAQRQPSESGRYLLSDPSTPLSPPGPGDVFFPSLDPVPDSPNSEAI
Test: Cell-Based Binding High-Content Assay For mVISTA (HC CBA mVISTA)
Method in brief: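 This high-content binding assay uses HEK293T cells expressing murine VISTA, measuring displacement of 2 nM biotinylated peptide by fluorescent streptavidin imaging. IC50 values come from four-parameter logistic fitting.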

[1] = 293T cells expressing mouse VISTA, competition with biotinylated peptide (2 nM), read-out: HC CBA mVISTA IC50

SMILES | IC50 (read-out: HC CBA mVISTA IC50) [nM] | also measured
CCCCCCN1CC(=O)N[C@@H](Cc2ccc(O)cc2)C(=O)N[C@@H](CC(C)C)C(=O)N[C@@H](CC(N)=O)C(=O)N[C@@H](CCCNC(=N)N)C(=O)N[C@@H](CC(C)C)C(=O)N[C@@H](CCCCC)C(=O)N2CCC[C@H]2C(=O)N[C@@H](C(C)C)C(=O)N[C@@H](C(C)C)C(=O)N[C@H](C(=O)N[C@@H](CO)C(=O)O)CSCC(=O)N[C@@H](Cc2ccccc2)C(=O)N[C@@H](Cc2ccc(O)cc2)C(=O)N[C@@H](CC(=O)O)C1=O [Example 1072] ({CH2CO}-FYD[NHexGly]YLNRL[Ahp(2)]PVVCS-OH; thioether N-14) |  | IC50 [1]: 5.8 nM
CCCCCCN1CC(=O)N[C@@H](Cc2ccc(O)cc2)C(=O)N[C@@H](CC(C)C)C(=O)NCC(=O)N[C@@H](CCCNC(=N)N)C(=O)N[C@@H](Cc2ccc(O)cc2)C(=O)N[C@@H](CCCCC)C(=O)N2CCC[C@H]2C(=O)N[C@@H](C(C)C)C(=O)N[C@@H](CC(=O)O)C(=O)N[C@H](C(=O)NCC(N)=O)CSCC(=O)N[C@@H](Cc2ccc3ccccc3c2)C(=O)N[C@@H](Cc2c[nH]c3ccccc23)C(=O)N[C@@H](CC(=O)O)C1=O [compound 1264] ({CH2CO}-[2Nal]WD[NHexGly]YLGRY[Ahp(2)]PVDCG-NH2; thioether N-14) |  | IC50 (cell-based binding high-content assay, mVISTA, the 15th table, read-out: HC CBA mVISTA IC50): 28.4 nM
C=CCOc1ccccc1C[C@@H]1NC(=O)CSC[C@@H](C(=O)NCC(N)=O)NC(=O)[C@H](CO)NC(=O)[C@H](C(C)(C)C)NC(=O)[C@@H]2CCCN2C(=O)[C@H](CCCCC)NC(=O)[C@H](CCCC)N(C)C(=O)[C@H](CCCNC(=N)N)NC(=O)[C@H](CC(N)=O)NC(=O)[C@H](CC(C)C)NC(=O)[C@H](Cc2ccc(O)cc2)NC(=O)CN(CCCCCC)C(=O)[C@H](CC(=O)O)NC(=O)[C@H](Cc2ccc(O)cc2)NC1=O [compound 1206] ({CH2CO}-[X1]YD[NHexGly]YLNR[NMeNle][Ahp(2)]P[Tle]SCG-NH2; thioether N-14) | 28.2 | 
CCCCCCN1CC(=O)N[C@@H](Cc2ccc(O)cc2)C(=O)N[C@@H](CCCC)C(=O)N[C@@H](CC(N)=O)C(=O)N[C@@H](CCCNC(N)=O)C(=O)N2Cc3ccccc3C[C@H]2C(=O)N[C@@H](CCCCC)C(=O)N2CCC[C@H]2C(=O)N[C@@H](C(C)C)C(=O)N[C@@H](CO)C(=O)N[C@H](C(=O)NCC(N)=O)CSCC(=O)N[C@@H](Cc2ccc3ccccc3c2)C(=O)N[C@@H](Cc2ccc(O)cc2)C(=O)N[C@@H](CC(=O)O)C1=O [Ex 1306] ({CH2CO}-[2Nal]YD[NHexGly]Y[Nle]N[Cit][Tic][Ahp(2)]PVSCG-NH2; thioether N-14) |  | IC50 (cell-based binding high-content assay, mVISTA, the 16th table, read-out: HC CBA mVISTA IC50): 25.2 nM
CCCCCCN1CC(=O)N[C@@H](Cc2ccc(O)cc2)C(=O)N[C@@H](CCCC)C(=O)N[C@@H](CC(N)=O)C(=O)N[C@@H](CCCNC(N)=O)C(=O)N2Cc3ccccc3C[C@H]2C(=O)N[C@@H](CCCCC)C(=O)N2CCC[C@H]2C(=O)N[C@@H](C(C)C)C(=O)N[C@@H](CO)C(=O)N[C@H](C(=O)NCCOCCOCC(=O)N[C@@H](CC(=O)O)C(=O)NCCOCCOCC(=O)NCCCCCCCCCCC(=O)O)CSCC(=O)N[C@@H](Cc2ccc3ccccc3c2)C(=O)N[C@@H](Cc2ccc(O)cc2)C(=O)N[C@@H](CC(=O)O)C1=O [compound 2315] ({CH2CO}-[2Nal]YD[NHexGly]Y[Nle]N[Cit][Tic][Ahp(2)]PVSC[AEEA]D[AEEA][Aun]-OH; thioether N-14) |  | IC50 (cell-based binding high-content assay, read-out: HC CBA miPrISTA IC50): 18.3 nM
CCCCCCN1CC(=O)N[C@@H](Cc2ccc(O)cc2)C(=O)N[C@@H](CC(C)C)C(=O)N[C@@H](CC(=O)O)C(=O)N[C@@H](CCCN)C(=O)N[C@@H](CC(C)C)C(=O)N[C@@H](CCCCC)C(=O)N2CCC[C@H]2C(=O)N[C@@H](C(C)C)C(=O)N[C@@H](CO)C(=O)N[C@H](C(=O)NCC(N)=O)CSCC(=O)N[C@@H](Cc2ccccc2)C(=O)N[C@@H](Cc2c[nH]c3ccccc23)C(=O)N[C@@H](CC(=O)O)C1=O [Example 1359] ({CH2CO}-FWD[NHexGly]YLD[Orn]L[Ahp(2)]PVSCG-NH2; thioether N-14) | 17.1 | 
CCCCCCN1CC(=O)N[C@@H](Cc2ccc(O)cc2)C(=O)N[C@@H](CC(C)C)C(=O)N[C@@H](CC(N)=O)C(=O)N[C@@H](CCCNC(=N)N)C(=O)N(C)[C@@H](CCCC)C(=O)N[C@@H](CCCCC)C(=O)N2CCC[C@H]2C(=O)N[C@@H](C(C)C)C(=O)N[C@@H](CO)C(=O)N[C@H](C(=O)NCC(N)=O)CSCC(=O)N[C@@H](Cc2cccc(Br)c2)C(=O)N[C@@H](Cc2ccc(O)cc2)C(=O)N[C@@H](CC(=O)O)C1=O [compound 1224] ({CH2CO}-[Phe(3-Br)]YD[NHexGly]YLNR[NMeNle][Ahp(2)]PVSCG-NH2; thioether N-14) | 22.6 | 
CCCCCCN1CC(=O)N[C@@H](Cc2ccc(O)cc2)C(=O)N[C@@H](CCCC)C(=O)N[C@@H](CC(N)=O)C(=O)N[C@@H](CCCN)C(=O)N(C)[C@@H](CCCC)C(=O)N[C@@H](CCCCC)C(=O)N2CCC[C@H]2C(=O)N[C@@H](C(C)(C)C)C(=O)N[C@@H](CO)C(=O)N[C@H](C(=O)N[C@@H](CC(N)=O)C(=O)O)CSCC(=O)N[C@@H](Cc2ccccc2)C(=O)N[C@@H](Cc2c[nH]c3ccccc23)C(=O)N[C@@H](CC(=O)O)C1=O [Example 1400] ({CH2CO}-FWD[NHexGly]Y[Nle]N[Orn][NMeNle][Ahp(2)]P[Tle]SCN-OH; thioether N-14) | 14.1 | 
CCCCCCN1CC(=O)N[C@@H](Cc2ccc(O)cc2)C(=O)N[C@@H](C(C)C)C(=O)NCC(=O)N[C@@H](CCCNC(=N)N)C(=O)N[C@@H](CC(C)C)C(=O)N[C@@H](CCCCC)C(=O)N2CCC[C@H]2C(=O)N[C@@H](C(C)C)C(=O)N[C@@H](CC(=O)O)C(=O)N[C@H](C(=O)NCC(=O)O)CSCC(=O)N[C@@H](Cc2ccc(OC)cc2)C(=O)N[C@@H](Cc2ccc(O)cc2)C(=O)N[C@@H](CC(=O)O)C1=O [compound 1478] ({CH2CO}-Y(Me)YD[NHexGly]YVGRL[Ahp(2)]PVDCG-OH; thioether N-14) |  | IC50 (the 20th table, scaffold drawing 23, read-out: HC CBA mVISTA IC50): 12 nM
CCCCCCN1CC(=O)N[C@@H](Cc2ccc(O)cc2)C(=O)N[C@@H](CCCC)C(=O)N[C@@H](CC(N)=O)C(=O)N[C@@H](CCCNC(=N)N)C(=O)N(C)[C@@H](CCCC)C(=O)N[C@@H](CCCCC)C(=O)N2CCC[C@H]2C(=O)N[C@@H](C(C)(C)C)C(=O)N[C@@H](CO)C(=O)N[C@H](C(=O)N[C@@H](CC(=O)O)C(N)=O)CSCC(=O)N[C@@H](Cc2ccccc2)C(=O)N[C@@H](Cc2c[nH]c3ccccc23)C(=O)N[C@@H](CC(=O)O)C1=O [Example 1378] ({CH2CO}-FWD[NHexGly]Y[Nle]NR[NMeNle][Ahp(2)]P[Tle]SCD-NH2; thioether N-14) | 41.3 | 
CCCCCCN1CC(=O)N[C@@H](Cc2ccc(O)cc2)C(=O)N[C@@H](CCCCC)C(=O)N[C@@H](CC(N)=O)C(=O)N[C@@H](CCCNC(=N)N)C(=O)N[C@@H](CC(C)C)C(=O)N[C@@H](CCCCC)C(=O)N2CCC[C@H]2C(=O)N[C@@H](C(C)C)C(=O)N[C@@H](CO)C(=O)N[C@H](C(=O)N[C@@H](CCC(=O)NCCCCCCCCCCC(=O)O)C(=O)O)CSCC(=O)N[C@@H](Cc2ccccc2)C(=O)N[C@@H](Cc2ccc(O)cc2)C(=O)N[C@@H](CC(=O)O)C1=O [Example 2340] ({CH2CO}-FYD[NHexGly]Y[Ahp(2)]NRL[Ahp(2)]PVSC[γGlu][Aun]-OH; thioether N-14) | 19 | 
CCCCCCN1CC(=O)N[C@@H](Cc2ccc(O)cc2)C(=O)N[C@@H](CCCCC)C(=O)N[C@@H](CC(N)=O)C(=O)N[C@@H](CCCN)C(=O)N[C@@H](CC(C)C)C(=O)N[C@@H](CCCCC)C(=O)N2CCC[C@H]2C(=O)N[C@@H](C(C)C)C(=O)N[C@@H](CO)C(=O)N[C@H](C(=O)NCC(N)=O)CSCC(=O)N[C@@H](Cc2ccccc2)C(=O)N[C@@H](Cc2ccc(O)cc2)C(=O)N[C@@H](CC(=O)O)C1=O [Example 1036] ({CH2CO}-FYD[NHexGly]Y[Ahp(2)]N[Orn]L[Ahp(2)]PVSCG-NH2; thioether N-14) |  | IC50 [1]: 20.1 nM

Now from value to molecule, other results behind:

IC50 (read-out: HC CBA mVISTA IC50) [nM] | SMILES | also measured
27.9 | CCCCCCN1CC(=O)N[C@@H](Cc2ccc(O)cc2)C(=O)N[C@@H](CCCC)C(=O)N[C@@H](CC(N)=O)C(=O)N[C@@H](CCCNC(=N)N)C(=O)N[C@@H](CCCCN)C(=O)N[C@@H](CCCCC)C(=O)N2CCC[C@H]2C(=O)N[C@@H](C(C)(C)C)C(=O)N[C@@H](CC(=O)O)C(=O)N[C@H](C(=O)NCCOCCOCC(=O)N[C@@H](CCC(=O)NCCOCCOCC(=O)NCCCCCCCCCCC(=O)O)C(=O)O)CSCC(=O)N[C@@H](Cc2ccccc2)C(=O)N[C@@H](Cc2c[nH]c3ccccc23)C(=O)N[C@@H](CC(=O)O)C1=O [compound 2254] ({CH2CO}-FWD[NHexGly]Y[Nle]NRK[Ahp(2)]P[Tle]DC[AEEA][γGlu][AEEA][Aun]-OH; thioether N-14) | 
16.4 | CCCCCCN1CC(=O)N[C@@H](Cc2ccc(O)cc2)C(=O)N[C@@H](CCCC)C(=O)N[C@@H](CC(=O)O)C(=O)N[C@@H](CCCN)C(=O)N(C)[C@@H](CCCC)C(=O)N[C@@H](CCCCC)C(=O)N2CCC[C@H]2C(=O)N[C@@H](C(C)(C)C)C(=O)N[C@@H](CC(=O)O)C(=O)N[C@H](C(=O)N[C@@H](CC(=O)O)C(N)=O)CSCC(=O)N[C@@H](Cc2ccccc2)C(=O)N[C@@H](Cc2c[nH]c3ccccc23)C(=O)N[C@@H](CC(=O)O)C1=O [Example 1372] ({CH2CO}-FWD[NHexGly]Y[Nle]D[Orn][NMeNle][Ahp(2)]P[Tle]DCD-NH2; thioether N-14) | 
